Consider 23 compounds from patent US7253286B2, “Nitrogen-containing aromatic derivatives” (Eisai Co., Ltd, priority 2000, dated 2007).

Test [1] has as its system Human Umbilical Vein Endothelial Cells (HUVECs). In words: Inhibition against sandwich tube formation by vascular endothelial cells in response to stimulation by VEGF. The class given is cell-based. The settings on record: HUVEC in collagen gel sandwich, stimulation by VEGF (25 ng/ml VEGF and 10 ng/ml EGF), 4th day, total tube length, read-out: IC50 (concentration required for 50% inhibition of tube formation). A digest of the protocol: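 HUVECs were sandwiched between collagen gel layers in serum-free medium with 25 ng/ml VEGF plus 10 ng/ml EGF, with test substance added above the gel at 37 °C. On day 4 tubes were MTT-stained and total tube length measured by image analysis. IC50 is the concentration halving tube length relative to no-compound wells.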

For test [2], the target named is T1, VEGFR2 (Homo sapiens, UniProt P35968).
T1 construct: coding for the cytoplasmic domain, beginning with lysine 791 and including the termination codon; made in house; host or cells: Sf9 insect cells (baculovirus, pFastBacHis)
T1 sequence (P35968 786-1356 limits assumed): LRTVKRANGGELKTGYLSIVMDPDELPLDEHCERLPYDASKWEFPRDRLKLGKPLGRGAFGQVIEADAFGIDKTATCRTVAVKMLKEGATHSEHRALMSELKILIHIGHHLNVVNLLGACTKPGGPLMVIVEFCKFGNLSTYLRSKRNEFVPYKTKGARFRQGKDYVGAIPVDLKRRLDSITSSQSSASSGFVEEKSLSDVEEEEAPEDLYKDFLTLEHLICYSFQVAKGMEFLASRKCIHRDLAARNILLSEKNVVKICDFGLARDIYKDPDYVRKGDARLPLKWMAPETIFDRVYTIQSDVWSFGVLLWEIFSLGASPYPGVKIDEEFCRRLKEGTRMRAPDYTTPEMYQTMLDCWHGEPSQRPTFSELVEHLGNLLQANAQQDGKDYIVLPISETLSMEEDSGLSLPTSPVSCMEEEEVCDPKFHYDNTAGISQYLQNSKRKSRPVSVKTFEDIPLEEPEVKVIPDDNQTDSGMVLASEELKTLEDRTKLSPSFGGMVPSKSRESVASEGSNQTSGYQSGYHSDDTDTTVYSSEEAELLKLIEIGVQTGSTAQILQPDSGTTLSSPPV
In words: Inhibition against VEGFR2 kinase (receptor tyrosine kinase activity, HTRF method). The class given is biochemical. The settings on record: His6-VEGFR2 cytoplasmic domain, biotin-poly(GT) substrate, ATP, 30° C. 10 minutes, read-out: IC50 (concentration required for 50% inhibition of VEGFR2 kinase activity). The source says: Measurement of Inhibition Against Receptor Tyrosine Kinase Activity
This assay is used to determine inhibition of a test substance on tyrosine kinase activity. DNA coding for the cytoplasmic domain of VEGFR2 is obtained by total cDNA synthesis (Edwards M, International Biotechnology Lab 5(3), 19–25, 1987) or by cloning. Expression in an appropriate expression system can produce a polypeptide with tyrosine kinase activity. […] For VEGFR2 (Genbank Accession No. L04947), the 1.7 kb DNA fragment described by Terman et al. (Oncogene, 6(9), 1677–1683, 1991), coding for the cytoplasmic domain, beginning with lysine 791 and including the termination codon, was isolated from a human placental cDNA library (purchased from Clontech Laboratories, Inc.) and cloned in a Baculovirus expression vector (pFastBacHis, purchased from GIBCO BRL) The recombinant construct was transfected into insect cells (Spondoptea frugiperda9 (Sf9)) to prepare a recombinant Baculovirus. (Instructions for preparation and use of recombinant Baculovirus maybe found in standard texts, such as “Bac-To-Bac Baculovirus Expression System” (GIBCO BRL).) The cytoplasmic fragment starting from lysine 398 (FGFR1, Genbank Accession No. X52833), the cytoplasmic fragment starting from lysine 558 (PDGFRβ, Genbank Accession No. M21616) or the cytoplasmic fragment starting from lysine 974 (HGFR, Genbank Accession No. J02958) may be cloned and expressed by the same method for use in assays for other tyrosine kinases. EGFR was purchased from Sigma Co. (Product No. E-2645).
For expression of the VEGFR2 tyrosine kinase, Sf9 cells were infected with the VEGFR2 recombinant virus and collected after 48 hours. The collected cells were rinsed with ice-cooled phosphate buffered saline (PBS) and then resuspended using 20 ml of ice-cooled Lysis Buffer (50 mM Tris-HCl (pH 8.5), 5 mM 2-mercaptoethanol, 100 mM KCl, 1 mM phenylmethylsulfonyl fluoride, 1% (v/v) NP-40) per 1.5×10^8 cells. The suspension was centrifuged at 12,000 rpm for 30 minutes at 4° C. and the supernatant was obtained.
The supernatant was added to a Ni—NTA agarose column (3 ml, purchased from Qiagen) equilibrated with Buffer A {20 mM Tris-HCl (pH 8.5), 5 mM 2-mercaptoethanol, 500 mM KCl, 20 mM imidazole, 10% (v/v) glycerol}. The column was washed with 30 ml of Buffer A, and then with 6 ml of Buffer B {20 mM Tris-HCl (pH 8.5), 5 mM 2-mercaptoethanol, 1M KCl, 10% (v/v) glycerol}, and finally with 6 ml of Buffer A. After washing, it was eluted with 6 ml of Buffer C {20 mM Tris-HCl (pH8.5), 5mM2-mercaptoethanol, 100 mMKCl, 100 mM imidazole, 10% (v/v) glycerol}. The eluate was placed on a dialysis membrane (purchased from Spectrum Laboratories) and dialyzed with a dialysis buffer {20 mM Tris-HCl (pH 7.5), 10% (v/v) glycerol, 1 mM dithiothreitol, 0.1 mM Na3VO4, 0.1 mM EGTA}. After dialysis, it was supplied for SDS-electrophoresis, and the recombinant protein (His6-VEGFR2, cytoplasmic domain of VEGFR2 fused with 6 histidine residues at the N-terminus) detected at a molecular weight of approximately 100 kDa with Coumassie Brilliant Blue staining was assayed using BSA (bovine serum albumin, purchased from Sigma Co.) as the standard substance, and stored at −80° C. until use. Using the same method for the cytoplasmic domains of FGFR1, PDGFRβ and HGFR yielded respective recombinant proteins fused with 6 histidine residues at the N-termini (His6-FGFR1, His6-PDGFRβ or His6-HGFR).
The tyrosine kinase reaction was conducted as follows. […]
For orientation: TR-FRET usually uses a lanthanide donor and a delayed reading to cut background.

`COc1ccc(NC(=O)Nc2ccc(Oc3ccnc4cc(OCCCc5ccncc5)c(C#N)cc34)cc2)cc1` [Example 1]: the IC50 stood at 310 nM in test [1] and 51 nM in test [2].
Take `COCCOc1cc2nccc(Oc3ccc(NC(=O)Nc4ccccc4)cc3)c2cc1C#N` [Example 65, N-(4-(6-cyano-7-(methoxyethoxy)-4-quinolyl)oxyphenyl)-N′-phenylurea]: the results for the IC50 in test [1] and in test [2] were 5.9 nM and 15 nM, respectively.
The corresponding values for `COCCOc1cc2nccc(Oc3ccc(NC(=O)NC4CC4)cc3)c2cc1C(N)=O` [Example 116, 4-(4-((Cyclopropylamino)carbonyl)aminophenoxy)-7-(2-methoxyethoxy)-6-quinolinecarboxamide] are 8.1 nM and 4.2 nM.
Turning to `COc1cc2nccc(Oc3ccc(NC(=O)NC4CC4)cc3)c2cc1C(N)=O` [Example 121, 4-(4-((Cyclopropylamino)carbonyl)aminophenoxy)-7-methoxy-6-quinolinecarboxamide], the IC50 is 42 nM in test [1] and 8.7 nM in test [2].
On to `O=C(Nc1ccc(Oc2ncnc3[nH]c(-c4ccc(OC[C@H](O)CN5CCCC5)cc4)cc23)cc1Cl)NC1CC1` [Example 159, 1-(2-Chloro-4-{6-[4-((2R)-2-hydroxy-3-pyrrolidinopropoxy)phenyl]-7H-pyrrolo[2,3-d]pyrimidin-4-yloxy]phenyl}-3-cyclopropylurea], for which the IC50 in test [1] was 0.6 nM; in test [2], 25 nM.
With `COCCOc1cc2nccc(Sc3ccc(NC(=O)Nc4ccc(F)cc4)s3)c2cc1C#N` [Example 253, 1-{5-[6-Cyano-7-(2-methoxyethoxy)-quinolin-4-ylsulfanyl]thiophen-2-yl}-3-(4-fluorophenyl)urea], the IC50 was determined as 40 nM in test [1] and 23 nM in test [2].
Take `COc1cc2nccc(Oc3ccc(NC(=O)Nc4ccc(F)cc4)cc3)c2cc1NC(C)=O` [Example 265, N-(4-{4-[3-(4-Fluorophenyl)ureido]phenoxy}-7-methoxyquinolin-6-yl)acetamide]: the figures for the IC50 in test [1] and in test [2] were 0.6 nM and 6.2 nM, respectively.
On the same counts, the results for `COc1cc2nccc(Oc3ccc(NC(=O)Nc4ccc(F)cc4)cc3)c2cc1NS(C)(=O)=O` [Example 266, N-(4-{4-[3-(4-Fluorophenyl)ureido]phenoxy}-7-methoxyquinolin-6-yl)methanesulfoneamide] are 0.6 nM and 5.4 nM.
On the same counts, the results for `O=C(Nc1ccc(Oc2ncnc3[nH]c(-c4ccccn4)cc23)cc1F)NC1CC1` [Example 283, 1-Cyclopropyl-3-[2-fluoro-4-(6-(pyridin-2-yl)-7H-pyrrolo[2,3-d]pyrimidin-4-yloxy)phenyl]urea] are 36 nM and 26 nM.
On to `COc1cc2nccc(Oc3ccc4c(ccn4C(=O)NCCF)c3)c2cc1C(N)=O` [Example 314, 6-Carbamoyl-4-[1-(2-fluoroethylcarbamoyl)1H-indol-5-yloxy]-7-methoxyquinoline], for which the IC50 in test [1] turned out to be 4.2 nM; in test [2], 5.3 nM.
The corresponding values for `CONC(=O)c1cc2c(Oc3ccc(NC(=O)Nc4nccs4)cc3)ccnc2cc1OC` [Example 346, N6-Methoxy-7-methoxy-4-(4-(((1,3-thiazol-2-ylamino)carbonyl)amino)phenoxy)-6-quinolinecarboxamide] are 25 nM and 4.6 nM.
Turning to `COCCOc1cc2nccc(Oc3ccc(NC(=O)NC4CC4)c(Cl)c3)c2cc1C(N)=O` [Example 381, 4-(3-Chloro-4-(cyclopropylaminocarbonyl)aminophenoxy)-7-(2-methoxyethoxy)-6-quinolinecarboxamide], the IC50 turned out to be 4.7 nM in test [1] and 2.6 nM in test [2].
On the same counts, the results for `NC(=O)c1cc2c(Oc3ccc(NC(=O)NC4CC4)c(Cl)c3)ccnc2cc1OCCCN1CCOCC1` [Example 382, 4-(3-Chloro-4-(cyclopropylaminocarbonyl)aminophenoxy)-7-(3-(4-morpholino)propoxy)-6-quinolinecarboxamide] are 4.6 nM and 9 nM.
Regarding `CN1CCC(COc2cc3nccc(Oc4ccc(NC(=O)NC5CC5)c(Cl)c4)c3cc2C(N)=O)CC1` [Example 394, 4-(3-Chloro-4-(cyclopropylaminocarbonyl)aminophenoxy)-7-((1-methyl-4-piperidyl)methoxy)-6-quinolinecarboxamide], in test [2], the IC50 amounted to 15 nM.
For the compound `COCCNC(=O)c1cc2c(Oc3ccc(NC(=O)NC4CC4)c(Cl)c3)ccnc2cc1OC` [Example 398, N6-(2-Methoxyethyl)-4-(3-chloro-4-(((cyclopropylamino)carbonyl)amino)phenoxy)-7-methoxy-6-quinolinecarboxamide], the IC50 in test [2] came to 3.5 nM.
Same read-out and setting: next, `COc1cc2nccc(Oc3ccc(NC(=O)NC4CC4)c(Cl)c3)c2cc1C(=O)NCCO` [Example 410, N6-(2-Hydroxyethyl)-4-(3-chloro-4-(((cyclopropylamino)carbonyl)amino)phenoxy)-7-methoxy-6-quinolinecarboxamide]: 2.2 nM; `COc1cc2nccc(Oc3ccc(NC(=O)NC4CC4)c(Cl)c3)c2cc1C(=O)NCC1OCCO1` [Example 413, N6-(1,3-Dioxolan-2-ylmethyl)-4-(3-chloro-4-(((cyclopropylamino)carbonyl)amino)phenoxy)-7-methoxy-6-quinolinecarboxamide]: 3.2 nM; `COc1cc2nccc(Oc3ccc(N(C)C(=O)Nc4ccc(F)cc4)cc3)c2cc1C(=O)NC1CC1` [Example 435]: 22 nM.
As to `CONC(=O)c1cc2c(Oc3ccc(N(C)C(=O)Nc4ccc(F)cc4)cc3)ccnc2cc1OC` [Example 437, N6-Methoxy-4-(4-(((4-fluoroanilino)carbonyl)(methyl)amino)phenoxy)-7-methoxy-6-quinolinecarboxamide], the IC50 in test [2] turned out to be 9.9 nM.
On to `COc1cc2nccc(Oc3ccc(NC(=O)NC4CC4)c(Cl)c3)c2cc1C(=O)NCC#N` [Example 441, N6-Cyanomethyl-4-(3-chloro-4-(((cyclopropylamino)carbonyl)amino)phenoxy)-7-methoxy-6-quinolinecarboxamide], for which the IC50 in test [1] came to 3.6 nM; in test [2], 2.8 nM.
For `COc1cc2nccc(Oc3ccc(NC(=O)NC4CC4)c(Cl)c3)c2cc1C(=O)NCC(N)=O` [Example 449, N6-(2-Amino-2-oxoethyl)-4-(3-chloro-4-(((cyclopropylamino)carbonyl)amino)phenoxy)-7-methoxy-6-quinolinecarboxamide], the IC50 in test [2] stood at 2.2 nM.
Consider `O=C(Nc1ccc(F)cc1)Nc1ccc(Oc2ccnc(NC(=O)c3cccnc3)c2)cc1` [Example 465, N-[4-(2-Nicotinoylaminopyridin-4-yl)oxyphenyl]-N′-(4-fluorophenyl)urea], for which the IC50 in test [2] is 13 nM.
Still for that read-out and setting: then `CC(=O)Nc1cc(Oc2ccc(NC(=O)Nc3cccc(S(C)(=O)=O)c3)cc2)ncn1` [Example 556, N-(6-(4-(3-(3-Methylsulfonylphenyl)ureido)phenoxy)pyrimidin-4-yl)acetamide], with 14 nM.
